Results published in ChEMBL document CHEMBL5120762, “Synthesis of 8-Fluoroneocryptolepine and Evaluation for Cytotoxic Activity against AGS Cancer Cells” (J Nat Prod, 2022).
Calls of active or inactive are those of the source. The calls are words filed in the database; no cut-off is given here.

Experiments:
AGS [1] = experiment: Cytotoxicity against human AGS cells assessed as reduction in cell viability measured after 48 hrs by MTT assay; format: functional, cell-based
[2] = Cytotoxicity against human GES1 cells assessed as reduction in cell viability measured after 48 hrs by MTT assay; format: toxicity, cell-based
AGS [3] = experiment: Induction of apoptosis in human AGS cells assessed as viable cells at 50 nM measured after 48 hrs by Annexin V-Alexa Fluor 488/propidium iodide staining based flow cytometry (reference value: 95.6%); format: functional; details: read-out: Activity
AGS [4] = experiment: Increase in PI3KCA mRNA expression in human AGS cells at 50 nM measured after 48 hrs by RT-qPCR analysis; format: functional, cell-based
AGS [5] = experiment: Increase in MEK mRNA expression in human AGS cells at 50 nM measured after 48 hrs by RT-qPCR analysis; format: functional, cell-based
AGS [6] = experiment: Induction of morphological changes in human AGS cells assessed as cell rounding at 50 to 250 nM measured after 48 hrs; format: functional, cell-based; details: dose 50-250 nM
AGS [7] = experiment: Inhibition of PI3K in human AGS cells assessed as decrease in AKT expression at 50 nM measured after 48 hrs by Western blot analysis; format: cell-based
AGS [8] = experiment: Cell cycle arrest in human AGS cells assessed as accumulation at G0/G1 phase at 20 nM measured after 24 hrs by propidium iodide staining based flow cytometry (reference value: 39.77%); format: functional
HCT-116 = experiment: Cytotoxicity against human HCT-116 cells assessed as reduction in cell viability measured after 48 hrs by MTT assay; format: functional, cell-based; details: HCT-116, 48 h
AGS [9] = experiment: Cell cycle arrest in human AGS cells assessed as accumulation at S phase at 10 nM measured after 24 hrs by propidium iodide staining based flow cytometry (reference value: 43.66%); format: functional
AGS [10] = experiment: Induction of apoptosis in human AGS cells assessed as viable cells at 250 nM measured after 48 hrs by Annexin V-Alexa Fluor 488/propidium iodide staining based flow cytometry (reference value: 95.6%); format: functional; details: read-out: Activity
AGS [11] = experiment: Induction of apoptosis in human AGS cells assessed as appearance of apoptotic bodies at 250 nM measured after 48 hrs by Hoechst 33258 staining based fluorescence microscopy; format: functional, cell-based
AGS [12] = experiment: Induction of apoptosis in human AGS cells assessed as nuclear fragmentation at 250 nM measured after 48 hrs by Hoechst 33258 staining based fluorescence microscopy; format: functional, cell-based
PANC-1 = experiment: Cytotoxicity against human PANC-1 cells assessed as reduction in cell viability measured after 48 hrs by MTT assay; format: functional, cell-based; details: PANC-1, 48 h
AGS [13] = experiment: Induction of apoptosis in human AGS cells assessed as late apoptotic cells at 250 nM measured after 48 hrs by Annexin V-Alexa Fluor 488/propidium iodide staining based flow cytometry (reference value: 3.1%); format: functional
AGS [14] = experiment: Antimigratory activity against human AGS cells measured after 48 hrs by crystal violet staining based transwell assay; format: functional, cell-based; details: dose 10-20 nM, DDE = dose-dependent effect
AGS [15] = experiment: Induction of apoptosis in human AGS cells assessed as necrotic cells at 50 nM measured after 48 hrs by Annexin V-Alexa Fluor 488/propidium iodide staining based flow cytometry (reference value: 0.9%); format: functional
AGS [16] = experiment: Induction of apoptosis in human AGS cells assessed as late apoptotic cells at 10 nM measured after 48 hrs by Annexin V-Alexa Fluor 488/propidium iodide staining based flow cytometry (reference value: 3.1%); format: functional
AGS [17] = experiment: Inhibition of PI3K in human AGS cells assessed as decrease in AKT phosphorylation at 50 nM measured after 48 hrs by Western blot analysis; format: cell-based
AGS [18] = experiment: Induction of apoptosis in human AGS cells measured after 48 hrs by Annexin V-Alexa Fluor 488/propidium iodide staining based flow cytometry; format: functional, cell-based; details: dose 10-250 nM, DDE = dose-dependent effect
AGS [19] = experiment: Increase in GSK-3beta mRNA expression in human AGS cells at 50 nM measured after 48 hrs by RT-qPCR analysis; format: functional, cell-based
AGS [20] = experiment: Inhibition of PI3K in human AGS cells assessed as decrease in AKT mRNA expression at 50 nM measured after 48 hrs by RT-qPCR analysis; format: cell-based
AGS [21] = experiment: Induction of apoptosis in human AGS cells assessed as late apoptotic cells at 50 nM measured after 48 hrs by Annexin V-Alexa Fluor 488/propidium iodide staining based flow cytometry (reference value: 3.1%); format: functional
AGS [22] = experiment: Cytotoxicity against human AGS cells assessed as reduction in cell viability at 10 to 250 nM by MTT assay; format: functional, cell-based; details: dose 10-250 nM, time 24-72 hrs, TDE = time-dependent effect
AGS [23] = experiment: Induction of cell cycle arrest in human AGS cells assessed as reduction in cyclinB1 gene expression at 50 nM measured after 48 hrs by RT-qPCR analysis; format: functional, cell-based
AGS [24] = experiment: Down regulation of PI3KCA expression in human AGS cells at 50 nM measured after 48 hrs by Western blot analysis; format: functional, cell-based
AGS [25] = experiment: Induction of apoptosis in human AGS cells assessed as early apoptotic cells at 250 nM measured after 48 hrs by Annexin V-Alexa Fluor 488/propidium iodide staining based flow cytometry (reference value: 0.4%); format: functional
AGS [26] = experiment: Reduction in beta-catenin mRNA expression in human AGS cells at 50 nM measured after 48 hrs by RT-qPCR analysis; format: functional, cell-based
AGS [27] = experiment: Induction of apoptosis in human AGS cells assessed as necrotic cells at 250 nM measured after 48 hrs by Annexin V-Alexa Fluor 488/propidium iodide staining based flow cytometry (reference value: 0.9%); format: functional
AGS [28] = experiment: Induction of apoptosis in human AGS cells assessed as chromatin shrinkage at 250 nM measured after 48 hrs by Hoechst 33258 staining based fluorescence microscopy; format: functional, cell-based
AGS [29] = experiment: Cell cycle arrest in human AGS cells assessed as accumulation at S phase at 20 nM measured after 24 hrs by propidium iodide staining based flow cytometry (reference value: 43.66%); format: functional
AGS [30] = experiment: Induction of morphological changes in human AGS cells assessed as cytoplasm concentration at 50 nM measured after 48 hrs; format: functional, cell-based
AGS [31] = experiment: Induction of morphological changes in human AGS cells assessed as appearance of loosely arranged cells at 50 to 250 nM measured after 48 hrs; format: functional, cell-based; details: dose 50-250 nM
AGS [32] = experiment: Induction of cell cycle arrest in human AGS cells assessed as reduction in CDK1 expression at 50 nM measured after 48 hrs by Western blot analysis; format: functional, cell-based
AGS [33] = experiment: Induction of apoptosis in human AGS cells assessed as necrotic cells at 10 nM measured after 48 hrs by Annexin V-Alexa Fluor 488/propidium iodide staining based flow cytometry (reference value: 0.9%); format: functional
AGS [34] = experiment: Cell cycle arrest in human AGS cells assessed as accumulation at G0/G1 phase at 10 nM measured after 24 hrs by propidium iodide staining based flow cytometry (reference value: 39.77%); format: functional
AGS [35] = experiment: Up regulation of E-cadherin expression in human AGS cells at 50 nM measured after 48 hrs by Western blot analysis; format: functional, cell-based
AGS [36] = experiment: Induction of apoptosis in human AGS cells assessed as appearance of bright blue fluorescence at 250 nM measured after 48 hrs by Hoechst 33258 staining based fluorescence microscopy; format: functional, cell-based
AGS [37] = experiment: Induction of apoptosis in human AGS cells assessed as early apoptotic cells at 10 nM measured after 48 hrs by Annexin V-Alexa Fluor 488/propidium iodide staining based flow cytometry (reference value: 0.4%); format: functional
AGS [38] = experiment: Antimigratory activity against human AGS cells assessed as number of migrating cells at 10 to 20 nM measured after 48 hrs by crystal violet staining based transwell assay (reference value: 293); format: functional; details: dose 10-20 nM
SMMC-7721 = experiment: Cytotoxicity against human SMMC-7721 cells assessed as reduction in cell viability measured after 48 hrs by MTT assay; format: functional, cell-based; details: SMMC-7721, 48 h
AGS [39] = experiment: Induction of cell cycle arrest in human AGS cells assessed as reduction in CDK1 gene expression at 50 nM measured after 48 hrs by RT-qPCR analysis; format: functional, cell-based
AGS [40] = experiment: Induction of morphological changes in human AGS cells assessed as conversion pf nuclear pyknosis into dense matter at 50 nM measured after 48 hrs; format: functional, cell-based
AGS [41] = experiment: Induction of apoptosis in human AGS cells assessed as viable cells at 10 nM measured after 48 hrs by Annexin V-Alexa Fluor 488/propidium iodide staining based flow cytometry (reference value: 95.6%); format: functional; details: read-out: Activity
AGS [42] = experiment: Induction of mitochondrial membrane potential loss in human AGS cells assessed as increase in green fluorescence at 10 to 250 nM measured after 48 hrs by JC-10 staining based fluorescence microscopy; format: functional, cell-based; details: dose 10-250 nM
AGS [43] = experiment: Induction of apoptosis in human AGS cells assessed as up regulation of cleaved caspase-3 expression at 50 nM measured after 48 hrs by Western blot analysis; format: functional, cell-based
AGS [44] = experiment: Induction of apoptosis in human AGS cells assessed as early apoptotic cells at 50 nM measured after 48 hrs by Annexin V-Alexa Fluor 488/propidium iodide staining based flow cytometry (reference value: 0.4%); format: functional
AGS [45] = experiment: Induction of morphological changes in human AGS cells assessed as weak cell adhesion at 50 to 250 nM measured after 48 hrs; format: functional, cell-based; details: dose 50-250 nM
AGS [46] = experiment: Cell cycle arrest in human AGS cells assessed as accumulation at G2/M phase at 10 nM measured after 24 hrs by propidium iodide staining based flow cytometry (reference value: 16.56%); format: functional
AGS [47] = experiment: Cell cycle arrest in human AGS cells assessed as accumulation at G2/M phase at 20 nM measured after 24 hrs by propidium iodide staining based flow cytometry (reference value: 16.56%); format: functional

## O=c1[nH]cc(F)c(=O)[nH]1 [FLUOROURACIL]
AGS [1]
  IC50: 58 µM
[2]
  IC50 at 48 h: > 100 µM

## Cn1c2nc3cc(F)ccc3c-2cc2ccccc21
AGS [3]
  viability at 0.05 µM: 69.8%
AGS [4]
  Activity: Active
AGS [5]
  Activity: Active
AGS [6]
  Activity: Active
AGS [7]
  inhibition: Active
AGS [8]
  Activity: 29.43%
HCT-116
  IC50: 18 µM
AGS [9]
  Activity: 42.57%
AGS [10]
  viability at 0.25 µM: 24.3%
AGS [11]
  Activity: Active
AGS [12]
  Activity: Active
PANC-1
  IC50: > 50 µM
AGS [13]
  Activity: 37.1%
AGS [14]
  Activity: Dde
AGS [1]
  IC50: 0.043 µM
AGS [1]; DDE = dose-dependent effect
  Activity: Dde
AGS [15]
  Activity: 9.5%
AGS [16]
  Activity: 7.3%
AGS [17]
  inhibition: Active
AGS [18]
  Activity: Dde
AGS [19]
  Activity: Active
AGS [20]
  inhibition: Active
AGS [21]
  Activity: 17.9%
AGS [22]
  Activity: Tde
AGS [23]
  Activity: Active
AGS [24]
  Activity: Active
AGS [25]
  Activity: 7.7%
AGS [26]
  Activity: Active
AGS [27]
  Activity: 30.9%
AGS [28]
  Activity: Active
AGS [29]
  Activity: 45.6%
AGS [30]
  Activity: Active
AGS [31]
  Activity: Active
AGS [32]
  Activity: Active
AGS [33]
  Activity: 2.2%
AGS [34]
  Activity: 35.82%
AGS [35]
  Activity: Active
AGS [36]
  Activity: Active
AGS [37]
  Activity: 1.8%
AGS [38]
  Activity: 66
SMMC-7721
  IC50: 52 µM
AGS [39]
  Activity: Active
AGS [40]
  Activity: Active
AGS [41]
  viability at 0.01 µM: 88.6%
[2]
  IC50 at 48 h: 40 µM
AGS [42]
  Activity: Active
AGS [43]
  Activity: Active
AGS [44]
  Activity: 2.9%
AGS [45]
  Activity: Active
AGS [46]
  Activity: 21.61%
AGS [47]
  Activity: 24.97%
